Calls of active or inactive are those of the source. No cut-off for these calls is given here.
Assays:
Trypanosoma cruzi [1] = experiment: Trypanocidal activity against extracellular trypomastigote form of Trypanosoma cruzi IRHOD/CO/2008/SN3 after 24 hrs by Neubauer hemocytometric analysis; assay type: functional, organism-based; conditions: IRHOD/CO/2008/SN3, 24 h
Trypanosoma cruzi [2] = experiment: Trypanocidal activity against intracellular amastigote form of Trypanosoma cruzi IRHOD/CO/2008/SN3 infected in African green monkey Vero cells after 72 hrs by Giemsa staining assay; assay type: functional, organism-based; conditions: IRHOD/CO/2008/SN3, Vero
Mus musculus [3] = experiment: Hepatotoxicity in BALB/c mouse infected with bloodstream trypomastigote form of Trypanosoma cruzi IRHOD/CO/2008/SN3 assessed as presence of necrotic cells in portal space at 5 mg/kg/day, ip administered for 5 days measured 150 days post-infection by light microscopic analysis; assay type: toxicity, organism-based; parameters: route intraperitoneal; conditions: in vivo, 3600 h
Mus musculus [4] = experiment: Hepatotoxicity in BALB/c mouse infected with bloodstream trypomastigote form of Trypanosoma cruzi IRHOD/CO/2008/SN3 assessed as hepatic destruction in portal space at 5 mg/kg/day, ip administered for 5 days measured 150 days post-infection by light microscopic analysis; assay type: toxicity, organism-based; parameters: route intraperitoneal; conditions: in vivo, 3600 h
Mus musculus [5] = experiment: Hepatotoxicity in BALB/c mouse infected with bloodstream trypomastigote form of Trypanosoma cruzi IRHOD/CO/2008/SN3 assessed as centrilobular destruction of hepatic vein at 5 mg/kg/day, ip administered for 5 days measured 150 days post-infection by light microscopic analysis; assay type: toxicity, organism-based; parameters: route intraperitoneal; conditions: in vivo, 3600 h
Mus musculus [6] = experiment: Hepatotoxicity in BALB/c mouse infected with bloodstream trypomastigote form of Trypanosoma cruzi IRHOD/CO/2008/SN3 assessed as lymphocytic infiltration in portal tracts at 5 mg/kg/day, ip administered for 5 days measured 150 days post-infection by light microscopic analysis; assay type: toxicity, organism-based; parameters: route intraperitoneal; conditions: in vivo, 3600 h
Mus musculus [7] = experiment: Hepatotoxicity in BALB/c mouse infected with bloodstream trypomastigote form of Trypanosoma cruzi IRHOD/CO/2008/SN3 assessed as vessels with thickened walls at 5 mg/kg/day, ip administered for 5 days measured 150 days post-infection by light microscopic analysis; assay type: toxicity, organism-based; parameters: route intraperitoneal; conditions: in vivo
Mus musculus [8] = experiment: Hepatotoxicity in BALB/c mouse infected with bloodstream trypomastigote form of Trypanosoma cruzi IRHOD/CO/2008/SN3 assessed as delocalized hepatic destruction at 5 mg/kg/day, ip administered for 5 days measured 150 days post-infection by light microscopic analysis; assay type: toxicity, organism-based; parameters: route intraperitoneal; conditions: in vivo, 3600 h
Mus musculus [9] = experiment: Hepatotoxicity in BALB/c mouse infected with bloodstream trypomastigote form of Trypanosoma cruzi IRHOD/CO/2008/SN3 assessed as granuloma with lymphocytic infiltrate at 5 mg/kg/day, ip administered for 5 days measured 150 days post-infection by light microscopic analysis; assay type: toxicity, organism-based; parameters: route intraperitoneal; conditions: in vivo, 3600 h
Trypanosoma cruzi [10] = experiment: Trypanocidal activity against bloodstream trypomastigote form of Trypanosoma cruzi IRHOD/CO/2008/SN3 infected in BALB/c mouse assessed as reduction of anti-parasitic Ig-G level in serum at 5 mg/kg/day, ip administered for 5 days measured over 40 to 120 days post-infection by ELISA; assay type: functional, organism-based
Trypanosoma cruzi [11] = experiment: Trypanocidal activity against bloodstream trypomastigote form of Trypanosoma cruzi IRHOD/CO/2008/SN3 infected in BALB/c mouse assessed as reduction of circulating parasite burden at 5 mg/kg, ip administered for 5 to 10 days measured 22 to 60 days post-infection by Neubauer hemocytometric analysis; assay type: functional, organism-based; parameters: dose 5 mg/kg
Trypanosoma cruzi [12] = experiment: Trypanocidal activity against trypomastigote form of Trypanosoma cruzi IRHOD/CO/2008/SN3 infected in African green monkey Vero cells assessed as inhibition of trypomastigotes released in culture medium at IC25 relative to control; assay type: functional
Trypanosoma cruzi [13] = experiment: (§1) Trypanocidal activity against amastigote form of Trypanosoma cruzi IRHOD/CO/2008/SN3 infected in African green monkey Vero cells assessed as inhibition of amastigotes load per cell at IC25 preincubated for 12 hrs followed by compound washout measured after 10 days by Giemsa staining-based microscopic analysis relative to control; assay type: functional
Trypanosoma cruzi [14] = experiment: as §1, with “parasite infection rate” for “amastigotes load per cell”; assay type: functional
Mus musculus [15] = experiment: Hepatotoxicity in BALB/c mouse infected with bloodstream trypomastigote form of Trypanosoma cruzi IRHOD/CO/2008/SN3 assessed as interstitial hemorrhage at 5 mg/kg/day, ip administered for 5 days measured 150 days post-infection by light microscopic analysis; assay type: toxicity, organism-based; parameters: route intraperitoneal; conditions: in vivo, 3600 h
Trypanosoma cruzi [16] = experiment: Trypanocidal activity against extracellular epimastigote form of Trypanosoma cruzi IRHOD/CO/2008/SN3 after 72 hrs by Neubauer hemocytometric analysis; assay type: functional, organism-based; conditions: IRHOD/CO/2008/SN3, 72 h
Trypanosoma cruzi [17] = experiment: Trypanocidal activity against epimastigote form of Trypanosoma cruzi IRHOD/CO/2008/SN3 assessed as induction of ethanol production at IC25 after 96 hrs by NMR spectra analysis; assay type: functional, organism-based
Trypanosoma cruzi [18] = experiment: Trypanocidal activity against epimastigote form of Trypanosoma cruzi IRHOD/CO/2008/SN3 assessed as inhibition of acetate excretion at IC25 after 96 hrs by NMR spectra analysis; assay type: functional, organism-based
Trypanosoma cruzi [19] = experiment: Trypanocidal activity against epimastigote form of Trypanosoma cruzi IRHOD/CO/2008/SN3 assessed as inhibition of succinate excretion at IC25 after 96 hrs by NMR spectra analysis; assay type: functional, organism-based
[20] = Inhibition of Escherichia coli Mn-SOD assessed as reduction of nitrobluetetrazolium measured for 10 mins by spectrophotometric analysis
[21] = Inhibition of Fe-SOD in Trypanosoma cruzi IRHOD/CO/2008/SN3 epimastigotes assessed as reduction of nitrobluetetrazolium measured for 10 mins by spectrophotometric analysis
Trypanosoma cruzi [22] = experiment: Inhibition of Fe-SOD in Trypanosoma cruzi IRHOD/CO/2008/SN3 epimastigotes assessed as reduction of nitrobluetetrazolium at 12.5 to 25 uM measured for 10 mins by spectrophotometric analysis relative to control
Trypanosoma cruzi [23] = experiment: Trypanocidal activity against epimastigote form of Trypanosoma cruzi IRHOD/CO/2008/SN3 assessed as appearance of swollen mitochondria at IC25 after 96 hrs by transmission electron microscopic analysis; assay type: functional, organism-based
Trypanosoma cruzi [24] = experiment: Trypanocidal activity against epimastigote form of Trypanosoma cruzi IRHOD/CO/2008/SN3 assessed as disorganization of cytoplasm at IC25 after 96 hrs by transmission electron microscopic analysis; assay type: functional, organism-based
[25] = Selectivity index, ratio of IC50 for African green monkey Vero cells to IC50 for extracellular trypomastigote form of Trypanosoma cruzi IRHOD/CO/2008/SN3; assay type: toxicity, cell-based; conditions: read-out: Ratio IC50
[26] = Selectivity index, ratio of IC50 for African green monkey Vero cells to IC50 for intracellular amastigote form of Trypanosoma cruzi IRHOD/CO/2008/SN3; assay type: toxicity, cell-based; conditions: read-out: Ratio IC50
[27] = Selectivity index, ratio of IC50 for African green monkey Vero cells to IC50 for extracellular epimastigote form of Trypanosoma cruzi IRHOD/CO/2008/SN3; assay type: toxicity, cell-based; conditions: read-out: Ratio IC50
Vero = experiment: Cytotoxicity against African green monkey Vero cells after 72 hrs by flow cytometric analysis; assay type: cell-based; conditions: Chlorocebus sabaeus
Trypanosoma cruzi [28] = experiment: Trypanocidal activity against epimastigote form of Trypanosoma cruzi IRHOD/CO/2008/SN3 assessed as inhibition of lactate excretion at IC25 after 96 hrs by NMR spectra analysis; assay type: functional, organism-based
Trypanosoma cruzi [29] = experiment: Trypanocidal activity against epimastigote form of Trypanosoma cruzi IRHOD/CO/2008/SN3 assessed as inhibition of alanine excretion at IC25 after 96 hrs by NMR spectra analysis; assay type: functional, organism-based

Compound	IC50 (Trypanosoma cruzi [1]) [µM]	IC50 (Trypanosoma cruzi [2]) [µM]	Activity (Trypanosoma cruzi [10])	Activity (Trypanosoma cruzi [11])	inhibition (INH) (Trypanosoma cruzi [12]) [%]	inhibition (INH) (Trypanosoma cruzi [13]) [%]	inhibition (INH) (Trypanosoma cruzi [14]) [%]	IC50 (Trypanosoma cruzi [16]) [µM]	selectivity ratio [25]	selectivity ratio [26]	selectivity ratio [27]	IC50 (Vero) [µM]	also measured
O=C(Cn1ccnc1[N+](=O)[O-])NCc1ccccc1 [BENZNIDAZOLE]	22.6	23	Active	Active	27	12	39	–	–	–	–	–	Activity (Mus musculus [3]): Toxic; Activity (Mus musculus [4]): Toxic; Activity (Mus musculus [5]): Non-toxic; Activity (Mus musculus [6]): Non-toxic; Activity (Mus musculus [7]): Non-toxic; Activity (Mus musculus [8]): Toxic; Activity (Mus musculus [9]): Toxic; Activity (Mus musculus [15]): Non-toxic
Cl.c1ccc(CNCCN2CCNCc3cccc(n3)CNCC2)nc1	18	10	Active	Active	82	60	77	9	20.3	36.4	42.2	366	Activity (Trypanosoma cruzi [17]): Active; inhibition (Trypanosoma cruzi [18]): Active; inhibition (Trypanosoma cruzi [19]): Active; IC50 [20]: 62.5 µM; IC50 [21]: 8.2 µM; inhibition (Trypanosoma cruzi [22]): 100%; Activity (Trypanosoma cruzi [23]): Active; Activity (Trypanosoma cruzi [24]): Active; inhibition (Trypanosoma cruzi [28]): Active; inhibition (Trypanosoma cruzi [29]): Active
c1cc2nc(c1)CNCCN(CCNCc1cccc3ccccc13)CCNC2	19.5	16.1	–	–	–	–	–	10	16.7	20.2	31.2	325	–

— ChEMBL document CHEMBL3085706, “Scorpiand-like azamacrocycles prevent the chronic establishment of Trypanosoma cruzi in a murine model” (Eur J Med Chem, 2013)
